Legend:
[1] = target: ATP-dependent translocase ABCB1 (Homo sapiens, UniProt P08183); experiment: TP_TRANSPORTER: inhibition of Adriamycin efflux (Adriamycin: 10 uM, JTV-519: 10 uM) in K562/MDR cells; format: functional, cell-based
[2] = target: Multidrug resistance-associated protein 1 (MRP1) (Homo sapiens, UniProt P33527); experiment: TP_TRANSPORTER: inhibition of 125I-azidoAG-A photoaffinity labeling (125I-azidoAG-A: 5 uM, JTV-519: 500 uM) in membrane from KB/MRP cells; format: functional, cell membranes, Membrane vesicle; set-up: scale not given: the % may be the effect or the level left; details: probe 125I-azidoAG-A (5 uM), read-out: Activity
Sequence of Multidrug resistance-associated protein 1 (MRP1) (P33527 whole entry): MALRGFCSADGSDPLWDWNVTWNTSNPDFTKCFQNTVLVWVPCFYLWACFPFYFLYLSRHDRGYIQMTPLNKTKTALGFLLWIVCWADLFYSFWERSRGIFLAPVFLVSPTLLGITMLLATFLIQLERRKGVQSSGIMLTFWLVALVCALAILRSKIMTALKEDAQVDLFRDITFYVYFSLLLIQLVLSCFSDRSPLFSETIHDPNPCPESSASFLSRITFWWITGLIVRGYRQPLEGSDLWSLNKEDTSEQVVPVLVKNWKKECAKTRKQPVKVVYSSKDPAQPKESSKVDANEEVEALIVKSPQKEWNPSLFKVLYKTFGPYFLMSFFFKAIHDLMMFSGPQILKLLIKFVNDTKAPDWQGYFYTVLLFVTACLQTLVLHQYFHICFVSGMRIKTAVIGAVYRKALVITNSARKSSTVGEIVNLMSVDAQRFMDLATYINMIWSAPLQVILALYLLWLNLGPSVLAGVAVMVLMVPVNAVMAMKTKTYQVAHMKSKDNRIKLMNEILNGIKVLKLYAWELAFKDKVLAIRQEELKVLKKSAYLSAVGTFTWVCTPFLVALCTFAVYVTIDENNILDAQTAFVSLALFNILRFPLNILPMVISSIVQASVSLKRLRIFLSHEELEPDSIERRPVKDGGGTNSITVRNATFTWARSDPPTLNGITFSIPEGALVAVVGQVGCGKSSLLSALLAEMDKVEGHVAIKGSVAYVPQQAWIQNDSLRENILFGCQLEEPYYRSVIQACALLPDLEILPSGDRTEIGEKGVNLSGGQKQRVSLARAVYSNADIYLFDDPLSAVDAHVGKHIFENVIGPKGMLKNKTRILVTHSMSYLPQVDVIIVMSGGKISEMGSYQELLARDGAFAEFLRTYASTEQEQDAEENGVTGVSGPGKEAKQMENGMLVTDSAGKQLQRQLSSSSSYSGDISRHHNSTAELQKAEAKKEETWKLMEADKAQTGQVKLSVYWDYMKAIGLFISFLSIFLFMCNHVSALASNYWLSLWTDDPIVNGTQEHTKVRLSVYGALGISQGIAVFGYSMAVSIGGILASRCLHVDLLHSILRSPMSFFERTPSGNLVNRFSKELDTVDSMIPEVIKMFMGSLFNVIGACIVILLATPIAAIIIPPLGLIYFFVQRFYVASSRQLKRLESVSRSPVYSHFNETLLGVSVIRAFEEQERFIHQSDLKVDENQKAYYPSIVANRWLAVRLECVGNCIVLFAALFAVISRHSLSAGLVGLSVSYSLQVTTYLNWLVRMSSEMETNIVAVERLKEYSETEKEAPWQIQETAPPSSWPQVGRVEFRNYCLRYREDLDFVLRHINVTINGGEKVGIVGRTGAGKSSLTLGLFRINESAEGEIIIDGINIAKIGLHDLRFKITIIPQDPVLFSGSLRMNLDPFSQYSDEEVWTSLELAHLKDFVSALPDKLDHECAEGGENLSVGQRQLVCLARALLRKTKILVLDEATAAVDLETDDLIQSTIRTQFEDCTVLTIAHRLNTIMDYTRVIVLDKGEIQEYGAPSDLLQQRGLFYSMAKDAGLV

Sequence of ATP-dependent translocase ABCB1 (P08183 whole entry): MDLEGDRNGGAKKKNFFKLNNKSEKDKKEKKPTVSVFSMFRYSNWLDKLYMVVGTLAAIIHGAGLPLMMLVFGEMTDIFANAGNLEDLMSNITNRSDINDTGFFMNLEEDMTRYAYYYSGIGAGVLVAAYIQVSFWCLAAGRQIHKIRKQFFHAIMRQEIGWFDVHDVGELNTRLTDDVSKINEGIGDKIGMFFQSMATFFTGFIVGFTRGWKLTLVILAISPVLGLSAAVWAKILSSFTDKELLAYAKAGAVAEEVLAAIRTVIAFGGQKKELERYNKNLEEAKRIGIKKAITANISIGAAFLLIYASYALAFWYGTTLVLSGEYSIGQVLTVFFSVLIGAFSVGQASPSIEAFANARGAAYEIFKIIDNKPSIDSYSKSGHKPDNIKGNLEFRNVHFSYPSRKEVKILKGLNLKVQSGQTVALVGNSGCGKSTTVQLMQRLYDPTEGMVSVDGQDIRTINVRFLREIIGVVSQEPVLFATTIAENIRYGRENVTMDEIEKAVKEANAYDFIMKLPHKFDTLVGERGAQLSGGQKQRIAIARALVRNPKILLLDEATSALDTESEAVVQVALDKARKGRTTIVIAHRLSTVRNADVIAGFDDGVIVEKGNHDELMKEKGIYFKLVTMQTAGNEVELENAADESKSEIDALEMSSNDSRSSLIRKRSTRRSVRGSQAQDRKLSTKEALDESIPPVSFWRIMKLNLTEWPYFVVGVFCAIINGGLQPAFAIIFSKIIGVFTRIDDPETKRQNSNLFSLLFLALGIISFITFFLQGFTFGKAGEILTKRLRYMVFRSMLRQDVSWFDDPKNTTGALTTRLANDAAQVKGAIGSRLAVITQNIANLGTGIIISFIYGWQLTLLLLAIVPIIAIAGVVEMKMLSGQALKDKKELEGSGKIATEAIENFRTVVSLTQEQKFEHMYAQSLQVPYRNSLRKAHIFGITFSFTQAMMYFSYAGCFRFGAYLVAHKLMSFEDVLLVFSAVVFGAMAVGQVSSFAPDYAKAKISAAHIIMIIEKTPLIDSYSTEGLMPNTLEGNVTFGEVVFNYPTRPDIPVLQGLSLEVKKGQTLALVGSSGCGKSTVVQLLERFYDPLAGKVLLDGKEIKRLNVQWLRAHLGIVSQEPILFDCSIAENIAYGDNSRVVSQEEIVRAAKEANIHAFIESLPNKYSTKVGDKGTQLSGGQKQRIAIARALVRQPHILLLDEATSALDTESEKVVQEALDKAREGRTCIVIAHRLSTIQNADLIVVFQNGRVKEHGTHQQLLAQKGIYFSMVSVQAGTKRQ

**Q.** What does the source list for COc1ccc2c(c1)CN(C(=O)CCN1CCC(Cc3ccccc3)CC1)CCS2?
**A.** Activity [1]: inhibitor [+]; activity at 500 µM [2]: 58%
